Measured values published in PubChem BioAssay AID504765 (Sanford-Burnham Center for Chemical Genomics, 2011).
The source made the active and inactive calls. The rule behind the calls is not given here.

Biological target: glucose-6-phosphate dehydrogenase-6-phosphogluconolactonase (Plasmodium falciparum 3D7)
Assay: PfG6PD inhibitor potency, dose response, biochemical, fluorescence intensity (AID 504765)
Details: Recombinant PfG6PD enzyme, fluorescence intensity (NADPH)

CN(C)c1cccc2c1c(NC(=O)c1ccc(Cl)cc1)nn2C
IC50: 8.65 µM

Cc1ccc(S(=O)(=O)Oc2cccc(/C=N/Nc3ccc(C(=O)O)cc3)c2)cc1
IC50: 7.01 µM

O=C(CNC(=O)c1ccccc1)NCC(=O)OCC(=O)c1ccc([N+](=O)[O-])cc1
IC50: inactive

O=C1CCC[C@@H]2[C@@H](Cc3ccccc3)[C@H](N3CCN(c4ccccc4)CC3)C[C@@H]3CCN1[C@@H]32
IC50: 9.43 µM

CC1COCC(C)N1C1=C(Cl)C(=O)c2ccccc2C1=O (stereo unspecified)
IC50: 7.19 µM

Oc1cc(CNCc2ccccc2)c(O)cc1CNCc1ccccc1
IC50: 3.36 µM

O=C(Nc1nnc(S(=O)(=O)N2CCOCC2)s1)c1ccc(F)cc1
IC50: 11.4 µM

O=[N+]([O-])c1ccc(Sc2cccc3cccnc23)c2cccnc12
IC50: 16.5 µM

O=C(O)c1ccccc1NS(=O)(=O)c1cccc(-n2sc3ccccc3c2=O)c1
IC50: 5.54 µM

COc1cccc(C(=O)Nc2nnc(C(C)C)s2)c1
IC50: 5.83 µM

N#Cc1ccc2sn(-c3ccccc3)c(=O)c2c1
IC50: 3.47 µM

Cc1ccc(NC(=O)Cn2sc3ccccc3c2=O)cc1
IC50: 4.24 µM

C=CCc1ccccc1OCC(=O)N/N=C/c1ccccc1OCC
IC50: 6.34 µM

Cc1ccsc1/C=N/NC(=O)c1cccc(S(=O)(=O)Nc2ccccc2Cl)c1
IC50: 13.2 µM

COc1ccc(-n2sc3ccccc3c2=O)cc1
IC50: 1.49 µM

COCc1cc(=O)n2[nH]c(C(C)(C)C)cc2n1
IC50: 14.1 µM

CC(C)(C)NC(=O)COc1ccc(CNc2ccc3[nH]c(=O)[nH]c3c2)cc1
IC50: 11.7 µM

CC(C)Nc1ccc(Nc2ccccc2)cc1
IC50: 12.1 µM

COc1ccc(NC(C)C(=O)N/N=C/c2cc(Br)ccc2OC)cc1 (stereo unspecified)
IC50: 8.77 µM

O=c1c2cc(F)ccc2sn1-c1ccccc1Cl
IC50: 4.29 µM

COc1ccccc1N1C(=O)C=C(Sc2nc(C)cc(C)n2)C1=O
IC50: 7.18 µM

CCN1CCN(c2nc(C)nc3c2sc(=S)n3C)CC1
IC50: 15.1 µM

CC(NC(=O)c1sc2cc([N+](=O)[O-])ccc2c1Cl)C(C)(C)C (stereo unspecified)
IC50: 18.5 µM

COC(=O)[C@H](C)NC(=O)c1cc2c(cn1)[nH]c1ccccc12
IC50: inactive

Nc1ccc(S(=O)(=O)c2cc(O)c3ccccc3c2O)cc1
IC50: 5.79 µM

O=C(N/N=C/c1cccc([N+](=O)[O-])c1)C(=O)N1CCCCCC1
IC50: 5.45 µM

O=C1Nc2cc(C(=O)NCCCN3CCCC3)ccc2S/C1=C/c1cccc(Cl)c1
IC50: 17.9 µM

COc1cc(CNc2ccc(N3CCCC3)cc2)ccc1OCc1ccccc1F
IC50: 2.39 µM

CCOC(=O)c1c(OCC)[nH]c2c1cc(O)c1ccccc12
IC50: inactive

O=C1Nc2ccccc2C(=O)C1(Cl)Cc1ccccc1 (stereo unspecified)
IC50: 9.57 µM

CCN(CC)CCn1c2ccccc2c(=O)c2c(O)ccc(O)c21
IC50: 2.39 µM

CCOc1ccc(N(CC(=O)N/N=C/c2cc([N+](=O)[O-])ccc2Cl)S(C)(=O)=O)cc1
IC50: 15.1 µM

COc1cc(NCCCn2cnc3c(OCc4ccccc4)ncnc32)cc(OC)c1OC
IC50: > 80 µM (inactive)

O=C(O)c1cc(N2C(=O)C=CC2=O)cc(N2C(=O)C=CC2=O)c1
IC50: 4.34 µM

Cc1cc(C)c[n+](C2=C([O-])c3ccccc3C(=O)/C2=N\S(=O)(=O)c2cccs2)c1
IC50: 15.3 µM

Cc1c(Cl)c([N+](=O)[O-])nn1Cc1ccc(C(=O)N/N=C\c2cccc(Br)c2)o1
IC50: 9.37 µM

Clc1ccc(N=c2ssnc2Cl)nc1
IC50: inactive

CCc1ccccc1N1CSC2=C(C#N)C(c3ccccc3F)CC(=O)N2C1 (stereo unspecified)
IC50: 9.2 µM

S=C(NN=Cc1ccccn1)N(Cc1ccccn1)Cc1ccccn1
IC50: 4.66 µM

CCOc1ccc2ccccc2c1/C=N/NC(=O)c1ccncc1
IC50: 3.49 µM

COc1cc(NC(C)CCc2ccccc2)cc(OC)c1OC (stereo unspecified)
IC50: 2.02 µM

Cc1cc(O)c(-c2cc(O)c(C)cc2O)cc1O
IC50: 1.88 µM

C=CCN1C=C2C(=O)C(C)(OC(=O)CCC(=O)OC)C(=O)C(Br)=C2C=C1c1ccc(OC)cc1 (stereo unspecified)
IC50: 2.79 µM

O=S(=O)(Nc1cc(Sc2ncn[nH]2)c(O)c2ccccc12)c1ccccc1
IC50: 0.741 µM

COc1c2ccoc2c(OCC=C(C)C)c2oc(=O)ccc12
IC50: inactive

CC(SCC(=O)Nc1ccccc1)c1nc2ccccc2c(=O)[nH]1 (stereo unspecified)
IC50: 5.29 µM

COc1cc(N(C)C)ccc1C=c1c2ccccc2n2c1cc(-c1ccccc1)[n+]2C
IC50: 9.08 µM

COc1cc(-c2nnc3n2N=C(c2ccccc2)CS3)cc(OC)c1OC
IC50: 3.88 µM

CC(Cc1ccc(O)c(O)c1)C(C)Cc1ccc(O)c(O)c1 (stereo unspecified)
IC50: inactive

Oc1cc(-n2cccn2)c(O)cc1-n1cccn1
IC50: 6.03 µM

Cc1ccccc1OCC(=O)N/N=C/c1ccc(Sc2nc3ccccc3s2)o1
IC50: 16.8 µM

Nn1c(CSc2nc3ccccc3o2)nnc1CSc1nc2ccccc2o1
IC50: 11.5 µM

c1cc2c(cc1NC1CCCCCC1)OCO2
IC50: 19.2 µM

CC1CN(c2ccccc2)NC1=O (stereo unspecified)
IC50: 2.34 µM

Cc1cc(O)c(C(C)C)cc1N=Cc1ccc([N+](=O)[O-])cc1
IC50: 6.99 µM

CCOC(=O)c1cnc2ccc(C)cc2c1Sc1ccccc1C(=O)OC
IC50: 11.1 µM

CC(=O)c1cccc(NC(=O)c2cnn(-c3ccccc3)c2C)c1
IC50: 8.46 µM

O=c1c2ccccc2sn1-c1nccs1
IC50: 1.69 µM

Cc1cc(SCC(=O)N/N=C/c2ccco2)nc2ccccc12
IC50: 8.11 µM

N#Cc1ccc(Oc2cccc3cccnc23)c([N+](=O)[O-])c1
IC50: 5.66 µM

O=C(Cn1sc2ccccc2c1=O)Nc1ccc(Br)cc1
IC50: 5.16 µM

O=C(COc1cccc2ccccc12)Nc1ccc(Cl)cc1C(=O)O
IC50: 13.5 µM

Cc1cc(C)c2c(=O)n(CC(=O)Nc3ccc(Br)c(C)c3)sc2n1
IC50: 2.62 µM

CCCN1CCc2cccc3c2[C@H]1Cc1ccc(O)c(O)c1-3
IC50: 15 µM

CC1(OC(=O)C2CCCC2)C(=O)C=C2C=C(c3ccsc3)N(CC3CC3)C=C2C1=O (stereo unspecified)
IC50: 7.8 µM

Cc1nc2ccccn2c1-c1ccnn1S(=O)(=O)c1ccc(F)cc1
IC50: 15.2 µM

COc1cc(CN2CCCC(C(=O)c3ccc4c5c(cccc35)CC4)C2)cc(OC)c1O (stereo unspecified)
IC50: 3.44 µM

COc1cc(C(=O)O/N=C2/C=C(C)C(=O)C=C2C)cc(OC)c1OC
IC50: 11.6 µM

O=C(O)CSc1cc(NS(=O)(=O)c2cccc([N+](=O)[O-])c2)c2ccccc2c1O
IC50: 1.34 µM

CCNc1cc2c(cc1O)CCC1C2CCC2(C)C(O)CCC12 (stereo unspecified)
IC50: inactive

CN(C)c1ccc(/C=C/c2ccc3c4ccccc4ccc3[n+]2-c2ccccc2)cc1
IC50: inactive

S=c1ncc2[nH]c(=S)[nH]c2[nH]1
IC50: 4.41 µM

COc1ccc(N2C(=O)/C(=C/c3cccs3)NC2=S)cc1
IC50: inactive

CC1N(C)c2cccc3cccc(c23)N1C
IC50: 11.2 µM

O=c1c2cc(C(F)(F)F)ccc2sn1-c1ccccc1
IC50: 3.89 µM

O=C(NC1=CC(=O)c2ccccc2C1=O)c1ccccc1
IC50: 2.53 µM

COc1ccc(CCn2c(NN)nc3c2c(=O)[nH]c(=O)n3C)cc1
IC50: 7.35 µM

COc1cc(NCc2ccccc2)c2ncn(Cc3ccccc3)c2c1
IC50: > 80 µM (inactive)

O=C(COC(=O)c1ccc2c(c1[N+](=O)[O-])C(=O)c1ccccc1C2=O)NC1CC1
IC50: 16.4 µM

CN1CCN(C(=S)c2ccc([N+](=O)[O-])cc2)CC1
IC50: inactive

N#C/C(C(=O)Nc1ccc(Cl)cc1)=C(/S)Nc1ccccc1
IC50: 1.89 µM

CCOC(=O)c1c(C)n(-c2ccc(C)cc2)c2c(C(C(C)=O)C(=O)O)c(Br)c(O)c(O)c12 (stereo unspecified)
IC50: 2.76 µM

CCOC(=O)c1ccc(/[N+]([O-])=C/c2ccccc2)cc1
IC50: 2.69 µM

CSc1nnc(NC(=O)c2ccc3c(c2)OCO3)s1
IC50: 2.82 µM

CCC(=O)OCCNc1cc(Sc2nc3ccccc3s2)c2nonc2c1[N+](=O)[O-]
IC50: 16.1 µM

Cc1ccc2nc(SCC(=O)N/N=C/c3ccco3)cc(C)c2c1
IC50: 10.3 µM

COc1ccc(C(=O)/C=C2\Sc3ccccc3N2C)cc1
IC50: 7.94 µM

COc1ccccc1N1CSC2=C(C#N)C(c3ccc(SC)cc3)CC(=O)N2C1 (stereo unspecified)
IC50: 10.6 µM

COC(=O)CCC(=O)Nc1sc(Cc2ccccc2)c(C)c1C(N)=O
IC50: inactive

COc1cccc(C=Nc2cc(C(C)C)c(O)cc2C)c1O
IC50: 5.48 µM

CCN1CCCC1CNC(=O)c1ccc2c(c1)NC(=O)/C(=C\c1ccccc1F)S2 (stereo unspecified)
IC50: 1.96 µM

O=c1c2ccccc2sn1-c1ccc(Cl)cc1
IC50: 2.83 µM

O=S(=O)(Nc1cc(Sc2cccc3cccnc23)c(O)c2ccccc12)c1ccc(F)cc1
IC50: 1.22 µM

OCCN1CCN(C(=S)c2ccc(-c3ccccc3)cc2)CC1
IC50: 19.6 µM

Cc1cc(NC(=O)c2oc3ccccc3c2C)ccc1-n1cnnn1
IC50: 4.54 µM

O=C1NC(=S)NC(=O)C1=Cc1ccc(Br)s1
IC50: 7.9 µM

CN1CCc2cccc3c2[C@@H]1Cc1ccc(O)c(O)c1-3
IC50: 8.36 µM

NS(=O)(=O)c1ccc(-c2ccc(C=C3C(=O)NC(=O)NC3=O)o2)cc1
IC50: 3.14 µM

CN(CCO)c1cc(Sc2nc3ccccc3s2)c2nonc2c1[N+](=O)[O-]
IC50: 11.1 µM

CCOC(=O)CSc1nnc(NC(=O)c2cccc([N+](=O)[O-])c2)s1
IC50: 6.49 µM

CCCN1CCc2cc(O)cc3c2[C@H]1Cc1ccc(O)c(O)c1-3
IC50: 10.8 µM

CC(=O)Nc1cc(OC(C)=O)c2nonc2c1OC(C)=O
IC50: 11.9 µM

O=C(CCSCCC(=O)NN=Cc1ccccc1)NN=Cc1ccccc1
IC50: 7.76 µM

O=C1C=CC(=O)N1CCNc1ncc(C(F)(F)F)cc1Cl
IC50: 20 µM

O=C(Cn1sc2ccccc2c1=O)Nc1ccc(F)cc1
IC50: 2.56 µM

COc1cc(NCCCn2cnc(C(=O)Nc3ccc(C)c(C)c3)n2)cc(OC)c1OC
IC50: > 80 µM (inactive)

O=C(Nc1nnc(S(=O)(=O)N2CCCC2)s1)c1cccc([N+](=O)[O-])c1
IC50: 4.17 µM

CN1CCN(C(=S)c2ccc(Br)cc2)CC1
IC50: inactive

Cc1ccc(N2CC(C(=O)OCC(=O)c3ccc([N+](=O)[O-])cc3)CC2=O)cc1 (stereo unspecified)
IC50: 8.7 µM

CC1=C(C)CS(=O)N(S(=O)(=O)c2ccc(Cl)cc2)C1 (stereo unspecified)
IC50: inactive

Cn1c(=O)c2c([nH]c(=S)n2CCCc2ccccc2)n(C)c1=O
IC50: 19.5 µM

COCCNC(=S)Nc1ccc(N2CCOCC2)c(S(=O)(=O)Nc2ccc(Cl)cc2)c1
IC50: 19.4 µM

O=C(Nc1ccccn1)c1sc2cc([N+](=O)[O-])ccc2c1Cl
IC50: inactive

COc1cc(-c2cc(=O)c3c(O)c(OC)c(OC)c(O)c3o2)ccc1O
IC50: 8.95 µM

Oc1ccc(/C=N/N=C(c2ccccc2)c2ccccc2)c(O)c1O
IC50: 13.6 µM

NC(=O)N/N=C/c1ccc(-n2nncc2-c2ccc(Cl)cc2)cc1
IC50: 11.8 µM
